Data from PubChem BioAssay (NCI).
Values joined by “and” are separate entries in the source; they are usually repeats but may differ in a detail not shown here. Equal entries are not always repeated.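 Briefly, cells in 96-well plates were exposed to five compound concentrations for 48 h, and endpoints were estimated by linear interpolation. GI50 marks 50% less growth. The concentration for full growth arrest is given as TGI.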

Assays:
Assay in all cases: DTP human tumour cell line panel, 48 h
[1] = tested on: A498 renal
[2] = tested on: CCRF-CEM leukemia
[3] = tested on: LOX IMVI melanoma
[4] = tested on: MALME-3M melanoma
[5] = tested on: OVCAR-4 ovarian
[6] = tested on: OVCAR-5 ovarian
[7] = tested on: RXF 393 renal
[8] = tested on: SF-268 CNS
[9] = tested on: SF-539 CNS
[10] = tested on: SW-620 colon

NC(N)=NS(=O)(=O)c1ccc(NCc2c3ccccc3nc3ccccc23)cc1
TGI [1]: 12000 nM
TGI [2]: 9030 nM
TGI [3]: 58000 nM
TGI [4]: 49700 nM
TGI [5]: > 100000 nM
TGI [6]: > 100000 nM
TGI [7]: 42100 nM
TGI [8]: 23100 nM
TGI [9]: 4720 nM
TGI [10]: > 87700 nM

Cn1c2c(c3ccccc31)C1CCCCC1C1C(=O)NC(=O)C21 (configuration not stated)
TGI [1]: > 100000 nM
TGI [2]: > 100000 nM
TGI [3]: > 100000 nM
TGI [4]: > 100000 nM
TGI [5]: > 100000 nM
TGI [6]: > 100000 nM
TGI [7]: > 100000 nM
TGI [8]: > 100000 nM
TGI [9]: > 100000 nM
TGI [10]: > 100000 nM

CC/C=C1\N=C(c2ccc(Cl)cc2)OC1=O
TGI [1]: > 100000 nM
TGI [2]: > 100000 nM
TGI [3]: > 100000 nM
TGI [4]: > 100000 nM
TGI [5]: > 100000 nM
TGI [6]: > 100000 nM
TGI [7]: > 100000 nM
TGI [8]: > 100000 nM
TGI [9]: > 100000 nM
TGI [10]: > 100000 nM

O=S(O)CCCCCSSCCCCSSCCCCCS(=O)O
TGI [1]: > 100000 nM
TGI [2]: > 100000 nM
TGI [3]: > 100000 nM
TGI [4]: 86600 nM
TGI [5]: > 100000 nM
TGI [6]: > 100000 nM
TGI [7]: > 100000 nM
TGI [8]: > 100000 nM
TGI [9]: > 100000 nM
TGI [10]: > 100000 nM

O=C(CO)CC(=O)C(=O)Nc1nc([N+](=O)[O-])cs1
TGI [1]: > 100000 nM
TGI [2]: > 100000 nM
TGI [3]: > 100000 nM
TGI [4]: > 100000 nM
TGI [5]: > 100000 nM
TGI [6]: > 100000 nM
TGI [7]: > 100000 nM
TGI [8]: > 100000 nM
TGI [9]: > 100000 nM
TGI [10]: > 100000 nM

Cc1ccc(NC(=O)c2cccc([N+](=O)[O-])c2O)c([N+](=O)[O-])c1
TGI [1]: 31500 nM
TGI [2]: > 100000 nM
TGI [3]: 25100 nM
TGI [4]: 30800 nM
TGI [5]: 27000 nM
TGI [6]: 39400 nM
TGI [7]: 23600 nM
TGI [8]: 54900 nM
TGI [9]: 34300 nM
TGI [10]: 39500 nM

CN1CCCNc2c(c(=O)c2=O)NCCCN(C)CCCNc2c(c(=O)c2=O)NCCCN(C)CCCNc2c(c(=O)c2=O)NCCCN(C)CCCNc2c(c(=O)c2=O)NCCCN(C)CCCNc2c(c(=O)c2=O)NCCCN(C)CCCNc2c(c(=O)c2=O)NCCCN(C)CCCNc2c(c(=O)c2=O)NCCC1
GI50 [1]: 2720 nM
TGI [1]: 11100 nM
GI50 [2]: 2240 nM
TGI [2]: 49300 nM
GI50 [3]: 10500 nM
TGI [3]: > 50000 nM
GI50 [4]: 1110 nM
TGI [4]: 3540 nM
GI50 [5]: 2980 nM
TGI [5]: 16700 nM
GI50 [6]: 9320 nM
TGI [6]: 20600 nM
GI50 [7]: 2540 nM
TGI [7]: 12700 nM
GI50 [8]: 1820 nM
TGI [8]: 18300 nM
GI50 [9]: 1890 nM
TGI [9]: 7690 nM
GI50 [10]: 4630 nM
TGI [10]: 25300 nM

CCC(C)n1cc(C)c2c(C(=O)NCc3c(C)cc(C)[nH]c3=O)cc(Br)cc21 (configuration not stated)
GI50 [1]: 38400 nM
TGI [1]: > 100000 nM
GI50 [2]: 30800 nM
TGI [2]: > 100000 nM
GI50 [3]: 32800 nM
TGI [3]: > 100000 nM
GI50 [4]: 36200 nM
TGI [4]: 99700 nM
GI50 [5]: 37200 nM
TGI [5]: > 100000 nM
GI50 [6]: > 100000 nM
TGI [6]: > 100000 nM
GI50 [7]: 27600 nM
TGI [7]: > 100000 nM
GI50 [8]: 72300 nM
TGI [8]: > 100000 nM
GI50 [9]: > 100000 nM
TGI [9]: > 100000 nM
GI50 [10]: 36400 nM
TGI [10]: > 100000 nM

ClC1=C(Cl)C(Cl)=C(Cl)C1=C/C=C/c1ccccc1
GI50 [1]: 590 nM
TGI [1]: 1220 nM
GI50 [2]: 306 nM
GI50 [3]: 184 nM
TGI [3]: 407 nM
GI50 [4]: 167 nM
TGI [4]: 499 nM
GI50 [5]: 337 nM
TGI [5]: 19800 nM
GI50 [6]: 338 nM
TGI [6]: 968 nM
GI50 [7]: 186 nM
TGI [7]: 360 nM
GI50 [8]: 261 nM
TGI [8]: 1510 nM
GI50 [9]: 206 nM
TGI [9]: 699 nM
GI50 [10]: 299 nM
TGI [10]: 869 nM

CC(=O)N1CC(Nc2ccc(OC(F)(F)F)cc2)=CC1=O
GI50 [1]: 1250 nM
TGI [1]: 24200 nM
GI50 [2]: 2520 nM
TGI [2]: > 100000 nM
GI50 [3]: 2320 nM
TGI [3]: > 100000 nM
GI50 [4]: 61500 nM
TGI [4]: > 100000 nM
GI50 [5]: 4840 nM
TGI [5]: > 100000 nM
GI50 [6]: > 100000 nM
TGI [6]: > 100000 nM
GI50 [7]: 1650 nM
TGI [7]: 5920 nM
GI50 [8]: 14400 nM
TGI [8]: > 100000 nM
GI50 [9]: 1310 nM
TGI [9]: 9010 nM
GI50 [10]: 476 nM
TGI [10]: > 100000 nM

CC(C)(C)[Si](C)(C)OCC1OC(n2cnc3c(NC(=O)c4ccccc4)ncnc32)CC1O (configuration not stated)
TGI [1]: 60500 nM
TGI [2]: 53400 nM
TGI [3]: 33900 nM
TGI [4]: 60700 nM
TGI [5]: 84600 nM
TGI [6]: > 100000 nM
TGI [7]: 40400 nM
TGI [8]: > 100000 nM
TGI [9]: 41000 nM
TGI [10]: > 100000 nM

CC1/C=C/C=C/C=C/C=C/C=C/C=C/C=C/C(O[C@@H]2O[C@H](C)[C@H](O)[C@@H](O)[C@@H]2N)CC(O)C(C(=O)O)C(O)CC(=O)CC(O)CC(O)CC(O)CC(=O)CCCC(=O)CC(=O)OC1C(C)CC(C)C(O)CC(=O)c1ccc(N)cc1 (some centres not stated)
GI50 [1]: 51.2 nM and 159 nM
TGI [1]: 94.8 nM and 320 nM
GI50 [2]: 62.7 nM and 206 nM
TGI [2]: 141 nM and 489 nM
GI50 [3]: 55.5 nM and 166 nM
TGI [3]: 101 nM and 305 nM
GI50 [4]: 54.3 nM and 177 nM
TGI [4]: 104 nM and 365 nM
GI50 [5]: 69.3 nM and 246 nM
TGI [5]: 154 nM and 697 nM
GI50 [6]: 79.2 nM and 357 nM
TGI [6]: 216 nM and 1300 nM
GI50 [7]: 46.9 nM and 156 nM
TGI [7]: 89.4 nM and 304 nM
GI50 [8]: 56.5 nM and 202 nM
TGI [8]: 102 nM and 409 nM
GI50 [9]: 60.4 nM and 481 nM
GI50 [10]: 58.8 nM and 198 nM
TGI [10]: 109 nM and 430 nM

CC(=O)c1c(C(F)(F)F)n([O-])c2ccc(Cl)cc2[n+]1=O
GI50 [1]: 1330 nM
TGI [1]: 2880 nM
GI50 [2]: 10.8 nM
TGI [2]: 2220 nM
GI50 [3]: 652 nM
TGI [3]: 3920 nM
GI50 [4]: 1840 nM
TGI [4]: 3730 nM
GI50 [5]: 19000 nM
TGI [5]: 50800 nM
GI50 [6]: 2740 nM
TGI [6]: 18600 nM
GI50 [7]: 5110 nM
TGI [7]: 25400 nM
GI50 [8]: 1350 nM
TGI [8]: 8780 nM
GI50 [9]: 161 nM
TGI [9]: 526 nM
GI50 [10]: 1170 nM

O=C1C(Br)=CC2(C=C1Br)CCN=c1c2c(O)c2nc3ccccc3c3ccnc1c23
GI50 [1]: 1600 nM
TGI [1]: 6000 nM
GI50 [2]: 132 nM
TGI [2]: 612 nM
GI50 [3]: 1240 nM
TGI [3]: 4350 nM
GI50 [4]: 1410 nM
TGI [4]: 3440 nM
GI50 [5]: 788 nM
TGI [5]: 2220 nM
GI50 [6]: 7220 nM
TGI [6]: 17600 nM
GI50 [7]: 1110 nM
TGI [7]: 4360 nM
GI50 [8]: 672 nM
TGI [8]: 1910 nM
GI50 [9]: 1550 nM
TGI [9]: 6110 nM
GI50 [10]: 712 nM
TGI [10]: 1720 nM

C=C1C[C@](OC)([C@H](O)C(=O)N[C@@H](OC)[C@@H]2C[C@@H](O)C(C)(C)[C@@H](C[C@@H](COC)OC)O2)O[C@H](C)[C@@H]1C
GI50 [1]: 1.04 nM
TGI [1]: 2.88 nM
GI50 [2]: 16.8 nM
TGI [2]: 361 nM
GI50 [3]: 1.21 nM
TGI [3]: 2.95 nM
GI50 [4]: 0.693 nM
TGI [4]: 3.43 nM
GI50 [5]: 2.27 nM
TGI [5]: 19.8 nM
GI50 [6]: 1.82 nM
TGI [6]: 6.89 nM
GI50 [7]: 1.59 nM
TGI [7]: 4.65 nM
GI50 [8]: 1.95 nM
TGI [8]: 5.38 nM
GI50 [9]: 0.166 nM
TGI [9]: 2.13 nM
GI50 [10]: 1.57 nM
TGI [10]: 5.08 nM
